Holding throughout (type): cell-based
Assay [1] deals with human coronary artery smooth muscle cells (HCASMCs). Kind of assay: BrdU cell proliferation in HCASMCs. To be noted: for smooth muscle cell proliferation (BrdU incorporation): addition of the peptide; for vascular smooth muscle cell proliferation (DNA synthesis, uptake of BrdU, O.D. 450 nm): 10 nM, 100 nM, 1000 nM, compared to control. Here is the method:
Cell proliferation was evaluated with BrdU Cell Proliferation Elisa Kit (Abcam, UK). After incubation at 37° C. overnight with respective complete medium, for NRP-1 knock down-relative experiments, HUVECs and HCASMCs on 96-well plates were transfected with siRNA/siRNA-NC directly; for test polypeptide stimulations, HUVECs and HCASMCs were starved with low-serum condition for additional 24 hours and 48 hours before treatments. At 32 hours after transfection or polypeptide stimulations, cells were cultured with BrdU reagent for another 16 hours to determine cell proliferation. Subsequent steps were performed as manufacturer's instructions and data were read by Wallac 1420 Victor 2 (Perkin Elmer, USA).
(§1) The effect of FOL-026 peptide treatment on smooth muscle cell proliferation (FIG. 25a) and apoptosis (FIG. 25c) induced with low-oxygen condition was evaluated with the uptake of BrdU (n=10 per group) and active caspase-3/-7 (n=6-8 per group) separately. H2O2 measurement (FIG. 25b) of smooth muscle cells pre-incubated with FOL-26 peptides after 50 ug/ml oxidized Low-density Lipoprotein (oxLDL) stimulation for 2 hours (n=6-7 per group). Representative images of scratch wound assay in vitro are shown (FIG. 26a) and the ability of wound healing (FIG. 26b) in human coronary smooth muscle cells (HCASMCs) treated with FOL-026 peptides was measured by image J software (n=10 per group). Scale bar=150 um. Data are presented as means±SEM and acquired from 3 to 4 independent replicate tests. *P<0.05, **P<0.01, ***P<0.001, ****P<0.0001 by one-way ANOVA and Dunnett's post-hoc test.
(§2) The effect of FOL-005 peptide on smooth muscle cell proliferation (FIG. 30a) was determined with BrdU incorporation in peptide-treated human coronary smooth muscle cells (HCASMCs). Scratch wound assay (FIG. 30b) of HCASMCs incubated with FOL-005 peptides for 5 hours was measured by image J software (n=10-12 per group) and representative pictures of smooth muscle cell migration into an in vitro scratch injury were shown (FIG. 30c). Scale bar=150 um.

Assay [2] deals with human umbilical vascular endothelial cells (HUVECs). Kind of assay: In vitro scratch wound closure, HUVECs. To be noted: for wound closure rate (scratch injury): HUVECs, increasing concentration of peptide. The procedure:
The impact of FOL-026 peptide on human umbilical vascular endothelial cells (HUVECs) proliferation (FIG. 18a) and apoptosis (FIG. 18c) induced with low-oxygen condition was determined by BrdU uptake (n=8-9 per group) and active caspase-3/-7 (n=7-10 per group) separately. The ROS level (FIG. 18b) activated by 50 ug/ml oxidized Low-density Lipoprotein (oxLDL) for 2 hours in cells pre-incubated with FOL-026 peptides was assessed using H2O2 measurement (n=4-8 per group). Representative pictures of endothelial migration into an in vitro scratch injury were shown (FIG. 19a) and the wound closure rate (FIG. 19b) in HUVECs stimulated with increasing concentration of FOL-026 peptide was quantified by image J software (n=8-9 per group). Scale bar=150 um. Data are presented as means±SEM and acquired from 3 to 4 independent replicate tests. *P<0.05, **P<0.01, ****P<0.0001 by one-way ANOVA and Dunnett's post-hoc test.
The efficiency of small interfering RNA transfection for 48 hours in HUVECs was confirmed by qRT-PCR (n=4) (FIG. 22a). Effect of FOL-026 peptide stimulation on cell proliferation (FIG. 22b) and cell apoptosis at 0.1% oxygen (FIG. 22c) in HUVECs transfected with siRNA-NC or siNRP-1 was evaluated by BrdU incorporation (n=4-7 per group) and active caspase-3/-7 ((n=4-7 per group). Representative pictures of endothelial cells at 0 and 5 hours after scratch wounding are shown in 23a. The wound closure rate (FIG. 23b) of siRNA-NC/siNRP-1-transfected HUVECs stimulated with increasing concentration of FOL-026 peptide was quantified by image J software (n=9-12 per group). Scale bar=150 um. Data are presented as means±SEM and acquired from 3 to 4 independent replicate tests. *P<0.05, **P<0.01, ***P<0.001, ****P<0.0001 by Student's t test for A, two-way ANOVA followed with Sidak's and Dunnett's multiple comparisons test for B, C and E.
The effect of FOL-005 peptide on smooth muscle cell proliferation (FIG. 30a) was determined with BrdU incorporation in peptide-treated human coronary smooth muscle cells (HCASMCs). […]

The test system of assay [3] is human coronary smooth muscle cells (HCASMCs). Kind of assay: In vitro scratch wound closure, HCASMCs. Conditions: for wound closure (scratch wound assay): HCASMCs. The procedure: as §1
qRT-PCR analysis of NRP-1 mRNA expression in HCASMCs with small interfering RNA transfection for 48 hours (n=4) (FIG. 27a). The assessment of BrdU incorporation (FIG. 27b, n=10-11) and caspase-3/-7 activation (FIG. 27c, n=3-10) in siRNA-NC/siNRP-1-transfected […] treated with indicated concentration of FOL-026 peptide. The wound closure rate (FIG. 28b) of HCASMCs in siRNA-NC and siNRP-1 group stimulated with increasing concentration of FOL-026 peptide was quantified by image J software (n=9-12 per group). Scale bar=150 um. Data are presented as means±SEM and acquired from 3 to 4 independent replicate tests. *P<0.05, **P<0.01, ***P<0.001, ****P<0.0001 by Student's t test for A, two-way ANOVA followed with Sidak's and Dunnett's multiple comparisons test.
as §2

Assay [4] relates to Human umbilical cord endothelial cells (HUVECs). Kind of assay: sFasL-induced apoptosis, caspase 3 and 7 activation, HUVECs. To be noted: 10 nM, 100 nM, 1000 nM. The procedure: (§3) Human Umbilical Vein Endothelial Cells (HUVECs) and Human Coronary Artery Smooth Muscle Cells (HCASMCs) were purchased from Thermo Fisher. Cells were grown in Medium 200 containing 2% Low Serum Growth Supplement and Medium 231 with 5% Smooth Muscle Growth Supplement (Invitrogen, CA, USA) respectively with addition of Antibiotic-Antimycotic (1%, Invitrogen, CA, USA). Test polypeptide and sFasL (PeproTech, NJ, USA) were dissolved in the respective complete medium.
(§4) Caspase-Glo 3/7 Assay (Promega, USA) was performed to evaluate cell apoptosis. HUVECs and HCASMCs were seeded into 96-well plates at a density of 3-5×10^3 per well. For additional NRP-1 on cells transfected siRNA, NRP-1 was added 24 hours after transfection and the mixture of Caspase-Glo 3/7 was added 48 hours after polypeptide stimulations. Subsequent steps were performed as manufacturer's instructions using the FOL26 and FOL56 as test compounds. Data were read by Wallac 1420 Victor 2 (Perkin Elmer, USA).

Assay [5] has as its system human coronary artery smooth muscle cells (HCASMCs). Kind of assay: sFasL-induced apoptosis, caspase 3 and 7 activation, HCASMCs. To be noted: 10 nM, 100 nM, 1000 nM. The procedure:
as §3, §4

“Also recorded” adds a separate entry of the source.

Consider VDTYDGDISVVYGLR [FOL-005], for which the “smooth muscle cell proliferation (BrdU incorporation)” value in assay [1] was “increases”. Also, the “wound closure rate (scratch injury)” value in assay [2] is “accelerate HUVEC wound closure”. Moreover, the “wound closure (scratch wound assay)” value in assay [3] is “accelerate HCASMC wound closure”.

Consider VDTYDGGISVVYGLR [FOL-026], for which the “vascular smooth muscle cell proliferation (DNA synthesis, uptake of BrdU, O.D. 450 nm)” value in assay [1] (listed as FOL26) is listed as “significant increase in proliferation; also recorded: increase in O.D. (450 nm)”. Also, in assay [1], the “smooth muscle cell proliferation (BrdU incorporation)” value was “induces smooth muscle cell proliferation”. The “sFasL-induced apoptosis (caspase 3 and 7)” value in assay [4] (listed as FOL26) and in assay [5] (listed as FOL26) was “reduced sFasL-induced apoptosis; also recorded: capable of reversing the sFasL-induced apoptosis” each time. Also, the “wound closure rate (scratch injury)” value in assay [2] is listed as “accelerates HUVEC wound closure”. Also, the “wound closure rate after NRP-1 knock-down” value in assay [2] (siRNA-NC/siNRP-1-transfected HUVECs, increasing concentration, 5 hours) is “positive effect on wound closure”. Also, the “wound closure (scratch wound assay)” value in assay [3] was “accelerates wound closure”. In assay [3] (siRNA-NC/siNRP-1-transfected cells, printed as HUVECs, increasing concentration, 5 hours), the “wound closure after NRP-1 knock-down (Example 11)” value is listed as “positive effect on wound closure”.

For AEIDSIELSYGIK [FOL56], in assay [1], the “vascular smooth muscle cell proliferation (DNA synthesis, uptake of BrdU, O.D. 450 nm)” value was “significant increase in proliferation; also recorded: increases proliferation at all concentrations”. The “sFasL-induced apoptosis (caspase 3 and 7)” value in assay [4] is “reduced sFasL-induced apoptosis; also recorded: capable of inhibiting, or trended towards inhibiting apoptosis”; in assay [5] it was “reduced sFasL-induced apoptosis; also recorded: capable of inhibiting, or trended towards inhibiting apoptosis”.
